We go through 2 compounds from ChEMBL document CHEMBL1141785, “Cimipronidine, a cyclic guanidine alkaloid from Cimicifuga racemosa” (J Nat Prod, 2005).

Activity calls are given as the source filed them. The rule behind the calls is not given here.

The target in the experiment is 5-hydroxytryptamine receptor 7 (Homo sapiens) (UniProt P34969). Nature of the experiment: Binding affinity to 5HT7 receptor.
5-hydroxytryptamine receptor 7 (Homo sapiens), sequence (P34969 whole entry): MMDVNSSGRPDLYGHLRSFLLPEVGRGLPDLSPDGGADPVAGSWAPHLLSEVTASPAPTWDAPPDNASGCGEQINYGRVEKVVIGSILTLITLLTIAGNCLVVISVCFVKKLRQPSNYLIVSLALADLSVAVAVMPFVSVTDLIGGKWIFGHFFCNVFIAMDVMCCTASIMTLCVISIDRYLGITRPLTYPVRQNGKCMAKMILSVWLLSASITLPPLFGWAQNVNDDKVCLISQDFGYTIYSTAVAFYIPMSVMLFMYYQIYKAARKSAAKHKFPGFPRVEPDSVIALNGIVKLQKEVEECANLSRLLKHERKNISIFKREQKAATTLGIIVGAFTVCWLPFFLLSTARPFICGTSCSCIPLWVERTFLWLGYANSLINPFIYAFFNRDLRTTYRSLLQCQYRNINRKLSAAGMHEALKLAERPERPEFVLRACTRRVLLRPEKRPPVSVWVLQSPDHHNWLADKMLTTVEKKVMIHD

For the compound `N=C(N)N1CCCC1CC(=O)O` (configuration not stated), the result was Active.

On to `O=C(/C=C/c1ccc(O)c(O)c1)O[C@H](C(=O)O)[C@](O)(Cc1ccc(O)c(O)c1)C(=O)O`, for which the outcome was Active.
